Measured values published in article PMC5065773 (Antiviral research, 2016).
Like-named read-outs stand apart in the source and are kept apart here.

Columns and labels:
DENV 3 Pro = DENV 3 Pro (Dengue virus type 3, UniProt P27915); assay: In vitro protease assay with fluorogenic substrate Bz-Nle-Lys-Arg-Arg-AMC; assay type: biochemical, dengue virus serotype 3 (DENV3); conditions: for Hill-slope DENV 3 Pro: Hill slope of IC50 curve
DENV2 protease [1] = molecular target: T1, DENV2 protease (Dengue virus type 2, UniProt P14340); assay: Tryptophan; assay type: binding, dengue virus serotype 2 (DENV2); conditions: for Quenching of tryptophan fluorescence of DENV2 protease: 0.09-50 μM inhibitor, 2 μM protease; for Competition with BPTI in fluorescence quenching: 50 μM compound and 10 μM BPTI
BHK-21 cells = assay: Cytotoxicity to BHK-21 cells; assay type: cell-based; conditions: for CC50: ~24 h, CCK-8
WNV protease = WNV protease (West Nile virus, UniProt Q9Q6P4); assay: In vitro protease assay with fluorogenic substrate Bz-Nle-Lys-Arg-Arg-AMC; assay type: biochemical; conditions: for Hill-slope WNV Pro: Hill slope of IC50 curve; for inhibition at 25 µM: read-out: Inhibition of WNVpro (%) At 25 μM
DENV2 protease [2] = molecular target: T1, DENV2 protease; assay: Determination of Ki and kinetics of inhibition; assay type: biochemical, dengue virus serotype 2 (DENV2); conditions: for Mode of inhibition (Lineweaver-Burk plots): DENV2 protease
DENV2 = assay: Viral RNA copy number by qRT-PCR in DENV2-infected BHK-21 cells; assay type: cell-based; conditions: 24 h
DENV2 protease [3] = molecular target: T1, DENV2 protease; assay: In vitro protease assay with fluorogenic substrate Bz-Nle-Lys-Arg-Arg-AMC; assay type: biochemical, dengue virus serotype 2 (DENV2); conditions: for Hill-Slope DENV 2 Pro: Hill slope of IC50 curve
DENV 4 Pro = DENV 4 Pro (Dengue virus type 4, UniProt P09866); assay: as above; assay type: biochemical, dengue virus serotype 4 (DENV4); conditions: for Hill-slope DENV 4 Pro: Hill slope of IC50 curve
DENV 1 Pro = DENV 1 Pro (Dengue virus type 1, UniProt P17763); assay: as above; assay type: biochemical, dengue virus serotype 1 (DENV1); conditions: for Hill-slope DENV 1 Pro: Hill slope of IC50 curve
DENV2pro = conditions: read-out: Ki of BPTI against DENV2pro; ref Mueller et al., 2007; cited from earlier work
WNVpro = conditions: read-out: Ki of BPTI against WNVpro; ref Aleshin et al., 2007; cited from earlier work
DENV2 replicon = assay: Renilla luciferase reporter replicon assay in stable BHK-21/DENV2 replicon cells; assay type: cell-based

T1 sequence (P14340 1476-1653): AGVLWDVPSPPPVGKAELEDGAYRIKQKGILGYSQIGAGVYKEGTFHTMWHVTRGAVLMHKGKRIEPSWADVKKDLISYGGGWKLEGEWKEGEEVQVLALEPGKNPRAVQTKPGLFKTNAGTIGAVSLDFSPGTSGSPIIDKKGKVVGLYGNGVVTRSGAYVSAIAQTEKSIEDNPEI
Chain of WNV protease (Q9Q6P4 1428-1467): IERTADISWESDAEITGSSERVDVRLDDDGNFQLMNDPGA
Chain of WNV protease (Q9Q6P4 1506-1683): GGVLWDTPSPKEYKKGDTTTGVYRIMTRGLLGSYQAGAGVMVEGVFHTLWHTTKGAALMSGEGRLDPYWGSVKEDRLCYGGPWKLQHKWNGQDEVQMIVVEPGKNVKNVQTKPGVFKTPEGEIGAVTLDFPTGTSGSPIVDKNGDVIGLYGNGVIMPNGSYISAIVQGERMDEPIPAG
Chain of DENV 3 Pro (P27915 1474-1651): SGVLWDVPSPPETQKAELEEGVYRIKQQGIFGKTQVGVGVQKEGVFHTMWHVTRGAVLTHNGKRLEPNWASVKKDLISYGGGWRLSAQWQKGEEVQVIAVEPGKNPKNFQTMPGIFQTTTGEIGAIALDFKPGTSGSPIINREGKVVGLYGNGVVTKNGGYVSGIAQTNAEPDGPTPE
Chain of DENV 4 Pro (P09866 1475-1652): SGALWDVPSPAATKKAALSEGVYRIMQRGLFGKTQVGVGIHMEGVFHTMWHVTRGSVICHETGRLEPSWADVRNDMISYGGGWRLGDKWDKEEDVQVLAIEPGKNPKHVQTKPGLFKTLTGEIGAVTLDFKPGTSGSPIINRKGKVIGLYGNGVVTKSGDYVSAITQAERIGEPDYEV
Chain of DENV 1 Pro (P17763 1394-1445, looked up, natural form): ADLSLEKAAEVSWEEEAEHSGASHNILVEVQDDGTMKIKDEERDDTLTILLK
Chain of DENV 1 Pro (P17763 1476-1660): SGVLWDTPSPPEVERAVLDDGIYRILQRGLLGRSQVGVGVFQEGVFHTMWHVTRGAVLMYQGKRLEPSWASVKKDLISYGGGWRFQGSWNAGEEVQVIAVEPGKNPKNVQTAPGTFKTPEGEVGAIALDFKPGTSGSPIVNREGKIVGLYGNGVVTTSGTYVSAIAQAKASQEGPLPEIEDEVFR

Compound | Hill-slope DENV 3 Pro (DENV 3 Pro) | Quenching of tryptophan fluorescence of DENV2 protease (DENV2 protease [1]) | IC50 (WNV protease) | Hill-slope WNV Pro (WNV protease) | inhibition at 25 µM (WNV protease) | Ki (DENV2 protease [2]) | IC50 (DENV2 protease [3]) | Hill-Slope DENV 2 Pro (DENV2 protease [3]) | IC50 (DENV 4 Pro) | Hill-slope DENV 4 Pro (DENV 4 Pro) | IC50 (DENV 1 Pro) | Hill-slope DENV 1 Pro (DENV 1 Pro) | Competition with BPTI in fluorescence quenching (DENV2 protease [1]) | CC50 (BHK-21 cells) | Mode of inhibition (Lineweaver-Burk plots) (DENV2 protease [2]) | Inhibition of DENV2 viral RNA (qRT-PCR) vs DMSO control (DENV2; 2 μM compound) | also measured
Cc1ccc(C(=O)Nc2ccc(S(=O)(=O)O)c3cc(S(=O)(=O)O)cc(S(=O)(=O)O)c23)cc1NC(=O)c1cccc(NC(=O)Nc2cccc(C(=O)Nc3cc(C(=O)Nc4ccc(S(=O)(=O)O)c5cc(S(=O)(=O)O)cc(S(=O)(=O)O)c45)ccc3C)c2)c1 [Compound H, Suramin] | 1.05±0.04 | failed to quench the tryptophan fluorescence | 3240 ± 110 nM | 1.29±0.03 | 73% | 870 ± 140 nM | 2660 ± 190 nM | 0.97±0.04 | 3730 ± 140 nM | 1.25±0.12 | 2760 ± 250 nM | 0.92±0.05 | – | – | – | – | IC50 (DENV 3 Pro): 3250 ± 180 nM; Cytotoxicity at the highest concentration tested (BHK-21 cells; ~ 100 μM, 24 h): did not exhibit any cytotoxicity; inhibition at 10 µM (WNV protease; read-out: Inhibition of WNVpro (%) At 10 μM): 58%; Inhibition of DENV2 viral RNA (qRT-PCR) vs DMSO control (DENV2; 10 μM compound): good inhibition; inhibition at 10 µM (DENV2 protease [3]; read-out: Inhibition of DENV2pro (%) At 10 μM): 72%; inhibition at 25 µM (DENV2 protease [3]; read-out: Inhibition of DENV2pro (%) At 25 μM): 85%
Bovine pancreatic trypsin inhibitor [BPTI] | – | – | – | – | – | – | – | – | – | – | – | – | – | – | – | – | Ki (DENV2pro): 26 nM; Ki (WNVpro): 24 nM
Cc1ccc(C(=O)c2cc(O)c(O)c([N+](=O)[O-])c2)cc1 [Compound F, Tolcapone] | 1.60±0.08 | quenched tryptophan fluorescence in a dose dependent manner | 700 ± 40 nM | 1.58±0.05 | 95% | 220 ± 30 nM | 980 ± 60 nM | 1.51±0.07 | 640 ± 30 nM | 1.45±0.05 | 1150 ± 100 nM | 1.26±0.10 | did not compete with BPTI | 29200 nM | competitive inhibition | good inhibition | EC50 (DENV2 replicon; Dengue virus, DENV2, BHK-21, 24 h, read-out: EC50 (μM) DENV2 Replicon): 2.29 ± 0.3 µM; Inhibition of DENV2 replicon replication (DENV2 replicon; screened at 5, 10 and 25 μM vs 1% DMSO control): inhibit DENV2 replication
Tannic acid [Compound G] | 1.53±0.06 | quenched tryptophan fluorescence in a dose dependent manner | – | 0.88±0.05 | – | – | – | 1.60±0.07 | – | 0.79±0.03 | – | 1.79±0.09 | partially restore the fluorescence | 68100 nM | competitive inhibition | good inhibition | Inhibition of WNVpro (%) At 10 μM (WNV protease; 10 μM compound): 98%; Inhibition of WNVpro (%) At 25 μM (WNV protease; 25 μM compound): 96%; IC50 (WNV protease; read-out: IC50 WNV Pro, mean of duplicate experiments ± SEM): 120 ± 10 nM; Ki (DENV2 protease [2]; competitive inhibition model, 20 nM DENV2 protease): 340 ± 50 nM; Inhibition of DENV2pro (%) At 10 μM (DENV2 protease [3]; 10 μM compound): 99%; Inhibition of DENV2pro (%) At 25 μM (DENV2 protease [3]; 25 μM compound): 101%
